Measurements taken from US12115221B2, “Pickering emulsion stabilized by cellulose nanocrystals from ginkgo seed shells and preparation method thereof” (Jiangnan University, priority 2019, dated 2024).

Assay: Degradation rate of curcumin on storage
Type: physicochemical
Conditions: storage at room temperature for 7 days
Method: Curcumin was dissolved in an oil phase. The CNCs with low aspect ratio obtained in the Example 6 were diluted to 0.3 wt %, and an emulsion was prepared according to the oil-water ratio of 1:9. Subsequently, high-speed shearing was carried out at 10000 rpm for 2 min using high-speed shearing equipment to obtain a coarse emulsion, and then the coarse emulsion was circulated 4 times at 30 MPa using a high-pressure homogenizer to obtain the final Pickering emulsion. Determination of degradation rate of curcumin: a certain volume of emulsion was taken; the emulsion was mixed with ethanol in a ratio of 1:1; the mixture was centrifuged at 11000 rpm for 5 min; the supernatant was collected; and the absorbance at 426 nm was measured. Formula of degradation rate: Degradation rate (100%)=m1/m2×100, wherein m1 is the mass of curcumin after the emulsion is placed, and m2 is the mass of curcumin before the emulsion is placed.

COc1cc(/C=C/C(=O)CC(=O)/C=C/c2ccc(O)c(OC)c2)ccc1O [curcumin in the aqueous solution, Curcumin]
degradation rate of curcumin: 80%
